The values that follow come from publication PMC8208785, “Therapeutic efficacy of novel memantine nitrate MN‐08 in animal models of Alzheimer’s disease” (Aging Cell, 2021).

Data set [1] relates to NMDA receptors (NMDA‐activated current in rat hippocampal neurons). Nature of the data set: whole-cell patch-clamp recording of NMDA-activated current in primary hippocampal neurons. Format: cell-based. For orientation: Patch clamp records ionic current or voltage across a cell membrane.
Data set [2] relates to cerebellar granule neurons (CGNs). Nature of the data set: MTT cell viability, glutamate-induced excitotoxicity in CGNs. Format: cell-based, rat. To be noted: MN‐08 1–50 µM for 2 h, then 100 μM glutamate 24 h. The protocol: Excessive glutamate‐induced excitotoxicity might cause dysfunctions of cellular pathways, subsequently resulting in synaptic dysfunctions and neuronal loss. To evaluate the neuroprotective effects of MN‐08 against excitotoxicity, cerebellar granule neurons (CGNs) were treated with MN‐08 at the concentrations from 1 to 50 µM or memantine from 1 to 10 μM for 2 h, and then exposed to 100 μM glutamate for 24 h. […] Similarly, in APP/PS1 mice, MN‐08 prevented neuronal loss in the hippocampus by upregulating the expression ratio of Bcl‐2/Bax and downregulating the expression ratio of cleaved Caspase‐3 to Caspase‐3 (Figure S6).
CGNs were prepared from the 8-day-old Sprague–Dawley rats as described in our previous publication (Li et al., 2005). Briefly, animals were anesthetized and sacrificed, and their cerebella were collected. […]
Neurotoxicity was assessed using the tetrazolium salt 3-(4,5-dimethylthiazol-2-yl)-2,5- diphenyltetrazolium bromide dye (MTT) assay as previous publication (Luo et al., 2010). […] Cell viability was evaluated by observing colorimetric changes using a CLARIOstar plus Microplate Reader (BMG Labtech, Ortenberg, Germany) at a test wavelength of 570 nm with 655 nm as a reference wavelength. Data were expressed as a percentage of control cultures.

The next data set has as its system 3×Tg‐AD mice. Nature of the data set: behavioral tests (SDA, NOR, MWM), treatment study in 3×Tg-AD mice. Format: in vivo. The following applies: 3, 6, and 12 mg/kg, vs vehicle. As for the experimental part: Triple transgenic 3×Tg‐AD mice were acquired from Jackson Laboratory and fostered in the Shenzhen Center for Disease Control and Prevention (Shenzhen, China). Eight‐month‐old 3×Tg‐AD mice were categorized into six groups: (1) 3×Tg‐AD +Vehicle group; (2) 3×Tg‐AD +MN‐08 (3 mg/kg) group; (3) 3×Tg‐AD +MN‐08 (6 mg/kg) group; (4) 3×Tg‐AD +MN‐08 (12 mg/kg) group; (5) 3×Tg‐AD +Memantine (Mem, 5 mg/kg) group; (6) 3×Tg‐AD +Donepezil (Done, 1.3 mg/kg, once daily) group; (7) Eight‐month‐old B6129SF2/J mice as a control group. MN‐08 and memantine were given twice daily (Done, once daily) by gastric gavage for 4 months from 8 months of age.
The step-down avoidance (SDA) test was performed as previously described (Zhou et al., 2019). During the training phase, mice were singly placed on a metal floor with electrical stimulation (35 V) for 5 min. After 24 hours, the mouse was positioned on a wooden platform, while the metal floor at the bottom delivered an electrical shock (35 V) for another 5 min. The time for the animal to step down from the wooden platform were recorded as the step-down latency to evaluate retention memory.
Hippocampus-dependent spatial memory was determined by the Morris water maze (MWM) test according to the protocol described in a previous study (Jiao et al., 2015). The MWM test includes a platform training phase and a probe trial phase. An escape platform was placed in a fixed spatial location. During the training phase, each animal was placed at one of four different starting positions and tested four times a day with an interval of approximately 30 min. The animal in the water was immediately removed when it swam to the escape platform within 60 s. […] After the training phase, the probe trial was performed on the sixth day when the platform was removed. The animal was placed in the same starting position in the pool and allowed to move freely for 2 min. The animal swimming track was recorded and analyzed with a digital camera.
The novel object recognition test was performed to assess non-spatial working memory according to previously published protocols (Choi et al., 2011). Firstly, each animal was sequentially placed into a square box (50 × 50 × 50 cm, length × width × height) without any objects for 10 min per day for 2 continuous days to habituate to the environment. Then, two identical objects were placed parallel near one wall of the square box. Animals were placed singly in the box and allowed to explore the objects for 10 min. […] The time each animal took to examine the familiar object and novel object was recorded by digital camera. The discrimination index was calculated according to the following expression: (novel object (s) - familiar object (s))/ (novel object (s) + familiar object (s)). […]

The nature of data set [3]: brain exposure of MN-08 in rats. Type of data set: in vivo, SD rats. The following applies: for concentration at 0.5 h / concentration at 1 h / concentration at 24 h: both sexes, Sprague-Dawley, rat, oral. As for the experimental part: Bio-distribution studies were carried out in healthy adult rats (3 males and 3 females). All rats were administered MN-08 at a single dose of 12 mg/kg by gastric gavage. Brain and plasma were collected at 0.5, 1 and 24 h post dosing. Tissue samples were homogenized and then centrifuged at 12000 rpm for 10 min. The supernatants were injected into the LC-MS/MS system for analysis of MN-08 concentration according to the method previously described (Tian et al., 2016).

Another data set deals with normal rats. Also noted: method as in Luo et al., 2019. The following applies: ref Luo et al., 2019; cited from earlier work.

One may read the IC50 as the point on the concentration scale where inhibition reaches its midpoint.

Molecules are shown by their SMILES. Read-outs that look alike come from different tables or passages of the source.

With `CCC12CC3CC(N)(C1)CC(CO[N+](=O)[O-])(C3)C2` (stereo not drawn) [MN‐08], the “IC50 on NMDA‐mediated current compared with memantine” value in data set [1] is on record as “slightly high than memantine”. Moreover, the “NMDA‐activated current” value in data set [1] (MN‐08 1–30 µM, whole‐cell patch‐clamp) is on record as “inhibited”. The “NMDA‐activated current after washout of the compound (off‐rate)” value in data set [1] (NMDA 30 µM, −50 mV) is reported as “recovered rapidly”. Moreover, in data set [1] (holding potential −50 mV, NMDA 30 μM, rat hippocampal neurons, read-out: IC50 on the inhibition of NMDA‐mediated current), the IC50 turned out to be 7.32 ± 0.23 µM. For the same compound, the “protection against glutamate‐induced excitotoxicity (MTT)” value in data set [2] was “concentration‐dependently protect”. Moreover, the “step‐down latency” value in the data set with 3×Tg‐AD mice (4 months from 8 months of age) is given as “significant increase”. In the data set with 3×Tg‐AD mice (4 months), the “discrimination index (NOR)” value was “significant increase”. Further, the “escape latency time (MWM)” value with 3×Tg‐AD mice (4 months) is “significant reduction”. Moreover, the “number of crossings (MWM)” value in the data set on 3×Tg‐AD mice (4 months) was “significant increase”. Besides, the “concentration in brain tissue relative to plasma” value in data set [3] was “much higher than that in the plasma”. In addition, in data set [3] (12 mg/kg gastric gavage), the “blood‐brain barrier penetration” value is recorded as “readily penetrates the blood‐brain barrier”. Moreover, the “mean concentration in brain” value in data set [3] (12 mg/kg gastric gavage, 0.5 h, 12 mg/kg) is 5793 ± 1033 ng/g; in data set [3] (12 mg/kg gastric gavage, 1 h, 12 mg/kg) it was 10952 ± 3236 ng/g; in data set [3] (12 mg/kg gastric gavage, 24 h, 12 mg/kg) it was 1661 ± 183.4 ng/g. Besides, the concentration at 0.5 h in data set [3] (brain, 12 mg/kg gastric gavage, 0.5 h, read-out: mean concentration in brain) was 5790 ng/g; in data set [3] (12 mg/kg, 0.5 h, assuming 1 g brain tissue is 1 ml, read-out: concentration in the brain), around 19.9 µM; in data set [3] (plasma, 12 mg/kg gastric gavage, 0.5 h, read-out: mean concentration in plasma), 781 ± 99 ng/mL. Also, the concentration at 1 h in data set [3] (brain, 12 mg/kg gastric gavage, 1 h, read-out: mean concentration in brain) is 11000 ng/g; in data set [3] (12 mg/kg, 1 h, assuming 1 g brain tissue is 1 ml, read-out: concentration in the brain), around 37.7 µM; in data set [3] (plasma, 12 mg/kg gastric gavage, 1 h, read-out: mean concentration in plasma) it was 726 ± 141 ng/mL. The concentration at 24 h was 1660 ng/g in data set [3] (brain, 12 mg/kg gastric gavage, 24 h, read-out: mean concentration in brain); around 5.71 µM in data set [3] (12 mg/kg, 24 h, assuming 1 g brain tissue is 1 ml, read-out: concentration in the brain); 73.4 ± 23.8 ng/mL in data set [3] (plasma, 12 mg/kg gastric gavage, 24 h, read-out: mean concentration in plasma). Moreover, the blood pressure entry in the data set on normal rats is on record as “does not, however, change”.
